# In patent publication US20100041089A1, “IMPROVED METHOD FOR DETECTING CHEMICAL […]” (priority 2006, published 2010):
# System: yeast genes (expressed mRNA)
# Assay: DNA chip measurement of expressed mRNA of yeast genes after culture with a toxic chemical substance
# Format: cell-based, Saccharomyces cerevisiae S288C
# Protocol: Yeast (Saccharomyces cerevisiae S288C (a SUC2mal mel gap2 CUP1)) were cultured at 25° C. on YPD medium (yeast extract 1%, polypeptone 2%, glucose 2%). One of toxic chemical substances was added to the cell at logarithmic growth phase, and the cell was further cultured for two hours. Cell was cultured without any chemical substance in the same condition, and was used as a control. Concentrations of the chemical substances were defined to inhibit the growth of the yeast but not lead to death.
# After the completion of cultivation, the culture was centrifuged to collect the cells. To the cells, sodium acetate buffer (50 mM sodium acetate, 10 mM EDTA, 1% SDS) was added, and the mixture was shaken at 65° C. for five minutes, followed by returning to room temperature, and obtaining the supernatant, which procedure was repeated two times. To the supernatant, ½ amount of a solution of phenol/chloroform (1:1) was added, and the mixture was centrifuged to give a supernatant, an equal amount of chloroform was added, and the mixture was centrifuged to give a supernatant. To the supernatant, an equal amount of isopropanol containing 0.3 M sodium acetate was added, and the mixture was allowed to stand at room temperature for 30 minutes, after which the mixture was centrifuged to give sediment of the whole RNAs. Seventy % ethanol was added to the sediment, and the mixture was again centrifuged to give sediment, which was then dried and dissolved in water. mRNA was isolated from the whole RNAs as followings. In view of the fact that a poly A chain is attached to the 3′ terminus of mRNA, a polynucleotide having a poly T structure which was immobilized on the surface of latex beads was used to trap the mRNA, and then the mRNA was washed and eluted with spine column (Oligotex-dT30<Super>mRNA Purification Kit, Takara). Reverse transcription of the mRNA was conducted with a reverse transcriptase (Super Script II Reverse Transcriptase; catalogue No. 18064-014, GibcoBRL) using fluorescence-labeled nucleotides to give cDNAs that were introduced with Cy3-dUTP or Cy5-dUTP during the reverse transcription.
# The labeled cDNAs were dissolved in TE buffer (10 mM Tris-HCl/1 mM EDTA, pH 8.0), and the solution was dropped on the DNA chip containing the whole genes of yeast (DNA Chip Research Inc. Japan) so that the cDNAs were hybridized on the DNA chip at 65° C. for over 12 hours. The fluoresces intensity of the DNA chip was read with a scanner, and the ratio relative to the fluorescence intensity resulting from the absence of chemical substance was estimated as the following, which is shown in Tables 1 to 9.
# In the Tables, “Intensity” indicated in the rightmost column is a value of the level of expressed mRNA of each gene in control cells as divided by the average level of the expressions of the whole genes. A gene of which mRNA level is lower in control, and is higher in cases of addition of chemical substance, is especially useful in the detection of toxic substances.
# Here, when a ratio of an amount of mRNA expressed in the presence of the chemical substance to an amount of mRNA expressed in the absence of the chemical substance is two or more, then it is considered significant.
smiles,measurement,setting,value
"CN(C)C(=S)SSC(=S)N(C)C [(10), Tetramethylthiuram disulfide]",The level of expressed mRNA in the presence of chemical substance/The level of expressed mRNA in the absence of chemical substance,"yeast gene YAL053W, cultured two hours with substance",0.9
same,The level of expressed mRNA in the presence of chemical substance/The level of expressed mRNA in the absence of chemical substance,"yeast gene YAR028W, cultured two hours with substance",0.9
same,The level of expressed mRNA in the presence of chemical substance/The level of expressed mRNA in the absence of chemical substance,yeast gene YBL043W,14.7
same,The level of expressed mRNA in the presence of chemical substance/The level of expressed mRNA in the absence of chemical substance,"yeast gene YBL048W, cultured two hours with substance",4.4
same,The level of expressed mRNA in the presence of chemical substance/The level of expressed mRNA in the absence of chemical substance,yeast gene YBL078C,15.2
same,The level of expressed mRNA in the presence of chemical substance/The level of expressed mRNA in the absence of chemical substance,"yeast gene YBL107C, cultured two hours with substance",3.1
same,The level of expressed mRNA in the presence of chemical substance/The level of expressed mRNA in the absence of chemical substance,yeast gene YBR008C (detoxification protein gene),21.1
same,The level of expressed mRNA in the presence of chemical substance/The level of expressed mRNA in the absence of chemical substance,yeast gene YBR008C (transport facilitation protein gene),21.1
same,The level of expressed mRNA in the presence of chemical substance/The level of expressed mRNA in the absence of chemical substance,yeast gene YBR046C,6.2
same,The level of expressed mRNA in the presence of chemical substance/The level of expressed mRNA in the absence of chemical substance,yeast gene YBR072W (stress protein genes),43.4
same,The level of expressed mRNA in the presence of chemical substance/The level of expressed mRNA in the absence of chemical substance,"yeast gene YBR099C, cultured two hours with substance",12.9
same,The level of expressed mRNA in the presence of chemical substance/The level of expressed mRNA in the absence of chemical substance,yeast gene YCL027W,16.3
same,The level of expressed mRNA in the presence of chemical substance/The level of expressed mRNA in the absence of chemical substance,yeast gene YCL069W (detoxification protein gene),6.9
same,The level of expressed mRNA in the presence of chemical substance/The level of expressed mRNA in the absence of chemical substance,yeast gene YCL069W (transport facilitation protein gene),6.9
same,The level of expressed mRNA in the presence of chemical substance/The level of expressed mRNA in the absence of chemical substance,"yeast gene YCR102C, cultured two hours with substance",61.5
same,The level of expressed mRNA in the presence of chemical substance/The level of expressed mRNA in the absence of chemical substance,"yeast gene YDL021W, cultured for two hours with substance",7.4
same,The level of expressed mRNA in the presence of chemical substance/The level of expressed mRNA in the absence of chemical substance,"yeast gene YDL059C, DNA repair protein genes, cultured two hours with substance",7.8
same,The level of expressed mRNA in the presence of chemical substance/The level of expressed mRNA in the absence of chemical substance,"yeast gene YDL072C, cultured two hours with substance",1.5
same,The level of expressed mRNA in the presence of chemical substance/The level of expressed mRNA in the absence of chemical substance,"yeast gene YDL204W, cultured two hours with substance",2.0
same,The level of expressed mRNA in the presence of chemical substance/The level of expressed mRNA in the absence of chemical substance,"yeast gene YDL218W, cultured two hours with substance",12.6
same,The level of expressed mRNA in the presence of chemical substance/The level of expressed mRNA in the absence of chemical substance,"yeast gene YDL222C, cultured two hours with substance",1.0
same,The level of expressed mRNA in the presence of chemical substance/The level of expressed mRNA in the absence of chemical substance,yeast gene YDL243C,29.6
same,The level of expressed mRNA in the presence of chemical substance/The level of expressed mRNA in the absence of chemical substance,"yeast gene YDL243C, cultured for two hours with substance",29.6
same,The level of expressed mRNA in the presence of chemical substance/The level of expressed mRNA in the absence of chemical substance,"yeast gene YDR031W, cultured two hours with substance",2.7
same,The level of expressed mRNA in the presence of chemical substance/The level of expressed mRNA in the absence of chemical substance,"yeast gene YDR056C, cultured two hours with substance",2.3
same,The level of expressed mRNA in the presence of chemical substance/The level of expressed mRNA in the absence of chemical substance,yeast gene YDR069C,4.5
same,The level of expressed mRNA in the presence of chemical substance/The level of expressed mRNA in the absence of chemical substance,"yeast gene YDR210W, cultured two hours with substance",1.0
same,The level of expressed mRNA in the presence of chemical substance/The level of expressed mRNA in the absence of chemical substance,yeast gene YDR258C (stress protein genes),13.3
same,The level of expressed mRNA in the presence of chemical substance/The level of expressed mRNA in the absence of chemical substance,"yeast gene YDR258C, mitochondria-located protein gene",13.3
same,The level of expressed mRNA in the presence of chemical substance/The level of expressed mRNA in the absence of chemical substance,"yeast gene YDR330W, cultured two hours with substance",2.6
same,The level of expressed mRNA in the presence of chemical substance/The level of expressed mRNA in the absence of chemical substance,yeast gene YDR353W,5.1
same,The level of expressed mRNA in the presence of chemical substance/The level of expressed mRNA in the absence of chemical substance,"yeast gene YDR391C, cultured two hours with substance",2.7
same,The level of expressed mRNA in the presence of chemical substance/The level of expressed mRNA in the absence of chemical substance,"yeast gene YDR411C, cultured two hours with substance",1.0
same,The level of expressed mRNA in the presence of chemical substance/The level of expressed mRNA in the absence of chemical substance,"yeast gene YDR486C, cultured two hours with substance",5.8
same,The level of expressed mRNA in the presence of chemical substance/The level of expressed mRNA in the absence of chemical substance,"yeast gene YDR511W, cultured two hours with substance",2.2
same,The level of expressed mRNA in the presence of chemical substance/The level of expressed mRNA in the absence of chemical substance,"yeast gene YDR533C, cultured two hours with substance",12.7
same,The level of expressed mRNA in the presence of chemical substance/The level of expressed mRNA in the absence of chemical substance,"yeast gene YDR545W, cultured two hours with substance",0.7
same,The level of expressed mRNA in the presence of chemical substance/The level of expressed mRNA in the absence of chemical substance,"yeast gene YEL001C, cultured two hours with substance",1.2
same,The level of expressed mRNA in the presence of chemical substance/The level of expressed mRNA in the absence of chemical substance,"yeast gene YER004W, cultured two hours with substance",2.9
same,The level of expressed mRNA in the presence of chemical substance/The level of expressed mRNA in the absence of chemical substance,"yeast gene YER035W, cultured two hours with substance",1.4
same,The level of expressed mRNA in the presence of chemical substance/The level of expressed mRNA in the absence of chemical substance,"yeast gene YER038C, cultured two hours with substance",2.5
same,The level of expressed mRNA in the presence of chemical substance/The level of expressed mRNA in the absence of chemical substance,yeast gene YER069W,10.4
same,The level of expressed mRNA in the presence of chemical substance/The level of expressed mRNA in the absence of chemical substance,"yeast gene YER069W, mitochondria-located protein gene",10.4
same,The level of expressed mRNA in the presence of chemical substance/The level of expressed mRNA in the absence of chemical substance,"yeast gene YER079W, cultured two hours with substance",3.4
same,The level of expressed mRNA in the presence of chemical substance/The level of expressed mRNA in the absence of chemical substance,"yeast gene YER106W, cultured two hours with substance",1.8
same,The level of expressed mRNA in the presence of chemical substance/The level of expressed mRNA in the absence of chemical substance,"yeast gene YER158C, cultured two hours with substance",1.6
same,The level of expressed mRNA in the presence of chemical substance/The level of expressed mRNA in the absence of chemical substance,"yeast gene YER163C, cultured two hours with substance",3.4
same,The level of expressed mRNA in the presence of chemical substance/The level of expressed mRNA in the absence of chemical substance,"yeast gene YER175C, cultured two hours with substance",11.5
same,The level of expressed mRNA in the presence of chemical substance/The level of expressed mRNA in the absence of chemical substance,"yeast gene YFL006W, cultured two hours with substance",1.7
